Earlier results as cited in publication PMC7463651, “Phase I/Ib Study of Tenalisib (RP6530), a Dual PI3K δ/γ Inhibitor in Patients with Relapsed/Refractory T-Cell Lymphoma” (Cancers, 2020).
Like-named read-outs stand apart in the source and are kept apart here.

System: PTCL/CTCL
Set-up: method as in PMID 21245435, PMID 28641053, PMID 26101246
Conditions: cited from earlier work

C#CCC(Cc1cnc2nc(N)nc(N)c2n1)c1ccc(C(=O)N[C@@H](CCC(=O)O)C(=O)O)cc1 (stereo partly shown) [pralatrexate]
Overall response rate (ORR) (FDA approved single agent): 29%

brentuximab vedotin
Overall response rate (ORR) (in CD30+ T-cells): 68%

C/C=C1\NC(=O)[C@H]2CSSCC/C=C/[C@H](CC(=O)N[C@H](C(C)C)C(=O)N2)OC(=O)[C@H](C(C)C)NC1=O [romidepsin]
Overall response rate (ORR) (FDA approved single agent): 25%

O=C(/C=C/c1cccc(S(=O)(=O)Nc2ccccc2)c1)NO [belinostat]
Overall response rate (ORR) (FDA approved single agent): 26%
